Measured values: patent US7288527B2, “Inhibition of allergic contact dermatitis by N-L-alpha-aspartyl-L-phenylalanine 1-methyl ester” (priority 2004, dated 2007)
Residues, ends and D or L forms follow the SMILES beside them.

Key:
[1] = tested on: capsaicin burning sensation on the tongue; test: Treatment of capsaicin irritation of the tongue (Example 6); assay type: in vivo, human; conditions: dry powder, at least about 10 mg APM per 250 microliters of saliva
Experimental: A person eating spicy food seasoned with peppers is exposed to capsaicin, an irritant oil related to urushiol, causing an uncomfortable burning sensation on the tongue. APM or a derivative thereof is applied to the affected area as a dry powder in the amount of at least about 10 mg APM per 250 microliters of saliva, resulting in relief. Preferably, about 35 to about 80 mg of APM is applied to the area affected.

[2] = cited from earlier work
[3] = tested on: human skin exposed to urushiol (poison sumac, poison ivy); test: Treatment and prevention of urushiol-induced dermatitis on human skin (Example 3, Patient 1); assay type: in vivo; conditions: topical lotion with 0.5 to 1 mg APM/ml, two to three times per day, also two packets Equal by mouth
Experimental: The goats frequently consumed and were in contact with both poison sumac and poison ivy abundant in their enclosure without experiencing symptoms.
A topical APM preparation was made by mixing 2 to 3 packets of Equal® brand sweetner (80-120 mg of APM) with approximately 170 ml (5.5 fluid ounces) of lotion containing Vaseline® Intensive Care® Water Resistant Moisturizing Lotion (Unilever United States, Inc.), resulting in a lotion with 0.5 to 1 mg APM/ml. Patient 1 had previously used the lotion base without effect. Patient 1 also took two packets of Equal® brand sweetener by mouth in response to a symptom of diarrhea, a condition known to be associated with urishiol.
A soap and water scrub of the affected area was done one hour after application of the cream, and the affected area allowed to air dry.
Additional affected areas were then discovered on Patient 1, and a lotion was prepared for Patient 1 to use on these areas as well as unaffected areas that could come in contact with poison ivy during their work. Patient 1 used additional topical APM preparation approximately two to three times per day.

[4] = tested on: capsaicin burning of the eye; test: Alleviation of capsaicin burning of the eye (Example 7); assay type: in vivo, human; conditions: about 10 mg per 250 microliters in sterile saline applied to the affected eye
Experimental: A kitchen worker is exposed to capsaicin oil from peppers during cooking preparation, the oil is transferred to their hands and then, by their hands, to their eyes, resulting in a burning sensation and pain. […] The application may be repeated in 15 min because tearing may dilute or wash away the active ingredients.

[5] = tested on: capsaicin taste receptor (tongue); test: Oral application of APM with capsaicin-containing red pepper sauce; assay type: in vivo
Excerpt: The variability in observable results in preventing dermatitis or topical irritation appear related to the amount of APM that is applied, the time and order of the therapeutic application, and the presence of receptors to which either the irritant oil or APM may bind.

[6] = tested on: capsaicin burning and pain of mucosa, eyes or nose; test: APM against inadvertent mucosal contact with capsaicin cream (Example 8); assay type: in vivo, human; conditions: preparation comprising 38 mg of APM per 5 ml applied to the affected area
Experimental: A patient is treated for arthritis with a capsaicin cream applied twice daily to the affected joint. Capsaicin is absorbed by the transdermal tissue and then transported to joint area. After an appropriate interval, for instance 2-5 days, significant reduction in swelling, heat, redness, and pain is observed. However, the patient also inadvertently contacts his or her urethra, periurethra tissues, vaginal mucosa, rectal mucosa, eyes, or nose with the capsaicin cream, resulting in a sensation of burning and pain in the affected area.

[7] = tested on: skin which may be exposed to urushiol; test: Prevention of urushiol-induced dermatitis on human skin (Example 2); assay type: in vivo; conditions: thin film of APM suspended in a petroleum cream base applied before exposure
Excerpt: To an area of skin which may be exposed to urushiol is applied a thin film of APM suspended in a petroleum cream base.

[8] = tested on: skin previously exposed to urushiol; test: Treatment of allergic contact dermatitis with APM in a cream base (Example 1); assay type: in vivo; conditions: thin film of APM in a cream base; after sixty (60) minutes
Excerpt: To an area of skin previously exposed to urushiol is applied a thin film of APM in a cream base. […] Further treatment may include washing the affected area to remove and displace urushiol dissolved in the applied lotion and followed by reapplication of APM containing cream or lotion.

[9] = tested on: human rash secondary to urushiol exposure; test: Treatment of rash caused by urushiol (Example 4); assay type: in vivo
Experimental: A human rash, with itching, in progress secondary to contact with an animal known to have had significant exposure to urushiol substances was arrested in 8 hours with 2 applications of aspartame in a Vaseline Intensive Care Lotion base (about 1.2 to 10 mg/ml). The itching ceased, and discomfort and irritation resolved within 8 hours.

## COC(=O)[C@H](Cc1ccccc1)NC(=O)[C@@H](N)CC(=O)O [APM, N-L-alpha-aspartyl-L-phenylalanine 1-methyl ester] (H-Asp-Phe-OMe)
[1]
  burning sensation on the tongue: relief
[2]; pH 2.2
  maximum solubility in water: 20 mg/mL
[2]; pH 5.2
  minimum solubility in water: 13.5 mg/mL
[3]
  rash or reaction observed on the day after application: no rash or reaction had occurred
[4]
  burning sensation of the eye: the burning sensation is alleviated
[5]; long duration of exposure to capsaicin leading to secondary effects
  APM response after long exposure to capsaicin: not as strong nor as quick
[5]; oral application of APM before red pepper sauce
  recognition of spicyness of red pepper sauce: absence of recognition of the spicyness
[5]; red pepper sauce applied to the tongue first, APM applied after
  effect on developed sensations of heat and irritation: displacement by APM of capsaicin from the taste receptor is manifested and recognized quickly
[6]
  burning and pain in the affected area: reducing or eliminating the burning and pain
[7]
  symptoms of allergic contact dermatitis (prophylactic use): either do not appear or are significantly reduced
[8]
  symptoms of allergic contact dermatitis: significantly reduced
[9]; 2 applications of aspartame in Vaseline Intensive Care Lotion base (about 1.2 to 10 mg/ml)
  time to arrest of rash with itching: 8 h
[9]; 2 applications, lotion base about 1.2 to 10 mg/ml
  time until itching ceased and discomfort and irritation resolved: ≤ 8 h
[9]; overnight after 2 applications, lotion base about 1.2 to 10 mg/ml
  state of rash overnight: the rash was gone
